Several values for one entry are separate records, joined by “and”; a condition that tells them apart may be missing. Equal values may be shown once. Read-outs that look alike come from different tables or passages of the source.

Data on ten molecules can be found in patent publication US5869507A, “Azatyrosine analogues” (Wang; Hui-Po, priority 1997, dated 1999).

The subject of one data set is wild type NIH 3T3 cells. The experiment in a line: Growth inhibition of wild type NIH 3T3 cells (modified MTT assay, 48 h). The format is cell-based. Conditions: Mus musculus, NIH3T3, mean ± SD of 3-5 experiments. On the procedure:
(§1) Inhibition on the Growth of wild type and ras-transformed NIH 3T3 cells
(§2) The compounds of formula (I) were screened on wild type and ras-transformedNIH 3T3 cells for inhibitory activity. Screening was carried out in 96-well plate and the cells, with a density of 1500-2500 cells/well, were cultured in Dulbecco's modified Eagle's medium containing 10% fetal bovine serum at 37° C. under an atmosphere of 7.5% CO2 in air. Growth curve for each cell line was established. The DMSO solution of each compound was incubated with the cell for 48 hours. Procedure of Hansen's MTT assay method was modified for estimating the cell number (Hansen, B. M., Nielson, S. E., Berg, K. J. Immunol. Methods 1989, 119, 203.). The absorption of generated formazan's blue at l570 nm was recorded with ELISA reader. The number of surviving cells was determined from a calibration curve derived by correlating the absorption to the cell number determined from a hemacytometer. At least three experiments were carried out for each compound and IC50 was calculated using sigmoidal regression (Parellada, J., Guinea, M. J. Nat. Prod., 1995, 58, 823.). SI, the selectivity of growth inhibition of each test compound, was defined as the ratio of IC50 against wild type to IC50 against ras-transformed cell lines.
(Formazan colour is commonly taken as a measure of viable cells.)

The test system of data set [1] is ras-transformed NIH 3T3 cells. The experiment in a line: Growth inhibition of ras-transformed NIH 3T3 cells (modified MTT assay, 48 h). Type of data set: cell-based. The conditions noted are these: for Selective toxicity (SI, IC50 wild type/IC50 ras-transformed): IC50 wild type/IC50 ras-transformed cells; for IC50: Mus musculus, NIH3T3; for Relative activity: Ratio of the IC50 of azatyrosine to the IC50 of test compound. On the procedure:
as §1, §2

The test system of data set [2] is ras-transformed tumor cells. Conditions: relatively high concentrations up to; cited from earlier work.
In data set [3] the test system is mice harboring a normal c-Ha-ras gene. The conditions noted are these: 7,12-dimethylbenz[a]anthracene or methylnitrosourea-induced; cited from earlier work.
Another data set has as its system wild type cells. The conditions noted are these: cited from earlier work.
For data set [4], the system named is NIH 3T3 cells transformed by c-Ha-ras, c-Ki-ras, N-ras, or c-raf oncogene. The conditions noted are these: cited from earlier work.
The test system of data set [5] is revertant clone on nude mice. Conditions: some of the revertant clone; cited from earlier work.
[6] abbreviates: ras-transformed NIH 3T3, 48 hours, mean ± SD of 3-5 experiments, read-out: IC50 ras-transformed.

As to `CC(C)(C)OC(=O)NC(Cc1ccc(OCc2ccccc2)cn1)C(N)=O` (stereo not drawn) [Compound 7, 3-(5-benzyoxypyridin-2-yl)-2-t-butoxylcarbonylamino NH3], the concentration for half-maximal inhibition (IC50) (in general, the concentration at which inhibition is half-maximal) with wild type NIH 3T3 cells is 1716 ± 10.4 µM; in data set [1] (setting [6]), 73.1 ± 41.8 µM. In data set [1], the “Selective toxicity (SI, IC50 wild type/IC50 ras-transformed)” value (“Selective toxicity” for short) worked out at 23.5. The Relative activity in data set [1] (ras-transformed NIH 3T3) came to 103.
With `CCCNC(=O)C(Cc1ccc(OCc2ccccc2)cn1)NC(=O)OC(C)(C)C` (stereo not drawn) [Compound 8, propyl 3-(5-benzyoxypyridin-2-yl)-2-t-butoxylcarbonylamino propanamide], the 50% inhibitory concentration (IC50) in the data set with wild type NIH 3T3 cells stood at 989 ± 707 µM; in data set [1] (setting [6]), 34.1 ± 0.8 µM. Further, the “Selective toxicity” value in data set [1] came out at 28.4. Further, the Relative activity in data set [1] (ras-transformed NIH 3T3) is 217.
As to `C=CCNC(=O)C(Cc1ccc(OCc2ccccc2)cn1)NC(=O)OC(C)(C)C` (stereo not drawn) [Compound 9], the concentration for half-maximal inhibition (IC50) was 213 ± 112 µM in the data set with wild type NIH 3T3 cells and 74.1 ± 15.2 µM in data set [1] (setting [6]). Further, the “Selective toxicity” value in data set [1] came to 2.9. Besides, the Relative activity in data set [1] (ras-transformed NIH 3T3) is on record as 102.
With `C#CCNC(=O)C(Cc1ccc(OCc2ccccc2)cn1)NC(=O)OC(C)(C)C` (stereo not drawn) [Compound 10], the concentration for half-maximal inhibition (IC50) in the data set on wild type NIH 3T3 cells is 410 ± 247 µM; in data set [1] (setting [6]), 45.1 ± 1.65 µM. Also, in data set [1], the “Selective toxicity” value is 9.0. Also, the Relative activity in data set [1] (ras-transformed NIH 3T3) amounted to 165.
On to `CC(C)(C)OC(=O)NC(Cc1ccc(OCc2ccccc2)cn1)C(=O)NC1CC1` (stereo not drawn) [Compound 11], for which the concentration for half-maximal inhibition (IC50) was found to be 1930 ± 899 µM in the data set on wild type NIH 3T3 cells and 104 ± 83.8 µM in data set [1] (setting [6]). The “Selective toxicity” value in data set [1] is listed as 18.4. The Relative activity in data set [1] (ras-transformed NIH 3T3) came out at 72.
Turning to `CC(C)(C)OC(=O)NC(Cc1ccc(OCc2ccccc2)cn1)C(=O)NC1CCCCC1` (stereo not drawn) [Compound 12, N-cyclohexyl 3-(5-benzyoxypyridin-2-yl)-2-t-butoxylcarbonylaminopropanamide], the half-inhibitory concentration (IC50) in the data set on wild type NIH 3T3 cells is 2280 ± 1760 µM; in data set [1] (setting [6]), 16.1 ± 2.2 µM; in data set [1] (ras-transformed NIH 3T3, read-out: IC50), 16.5 ± 2.2 µM. Further, the “Selective toxicity” value in data set [1] was 138 and 138.5; in data set [1] (listed as compound 12), 138.5. Also, in data set [1] (ras-transformed NIH 3T3), the Relative activity is given as 458. For the same molecule, in data set [1] (ras-transformed NIH 3T3), the “IC50 fold lower than that of azatyrosine” value worked out at 458 fold.
Regarding `CC(C)(C)OC(=O)NC(Cc1ccc(OCc2ccccc2)cn1)C(=O)N1CCCCC1` (stereo not drawn) [Compound 13], the half-maximal inhibitory concentration (IC50) amounted to 74.8 ± 18.7 µM in the data set on wild type NIH 3T3 cells and 42.1 ± 3.9 µM in data set [1] (setting [6]). Further, the “Selective toxicity” value in data set [1] is reported as 1.8. Also, the Relative activity in data set [1] (ras-transformed NIH 3T3) is 180.
For `CC(C)(C)OC(=O)NC(Cc1ccc(OCc2ccccc2)cn1)C(=O)N1CCCC1` (stereo not drawn) [Compound 14], the figures for the half-inhibitory concentration (IC50) (in the data set on wild type NIH 3T3 cells; in data set [1] (setting [6])) were 148 ± 12.5 µM and 59.1 ± 17.8 µM, respectively. Besides, in data set [1], the “Selective toxicity” value is recorded as 2.5. In addition, in data set [1] (ras-transformed NIH 3T3), the Relative activity is reported as 127.
In the case of `CC(C)(C)OC(=O)NC(Cc1ccc(OCc2ccccc2)cn1)C(=O)N1CCSCC1` (stereo not drawn) [Compound 15], the IC50 in the data set with wild type NIH 3T3 cells stood at 154 ± 3.9 µM; in data set [1] (setting [6]), 50.1 ± 1.04 µM. Besides, the “Selective toxicity” value in data set [1] is reported as 3.1. Also, the Relative activity in data set [1] (ras-transformed NIH 3T3) is listed as 150.
On to `N[C@@H](Cc1ccc(O)cn1)C(=O)O` [azatyrosine, L-b-(5-hydroxy-2-pyridyl)alanine], for which the “concentration necessary for the activity” value in data set [2] was 1 to 2 mM. Further, the IC50 with wild type NIH 3T3 cells was 10800 ± 472 µM; in data set [1] (setting [6]), 7550 ± 418 µM. The “inhibition of induced carcinogenesis” value in data set [3] is listed as “inhibits”. Moreover, in the data set with wild type cells, the “effect on growth of wild type cells” value is “essentially no effect”. Besides, the “reversion of surviving transformed cells” value in data set [4] (azatyrosine-treated transformed cells that survived) is on record as “reverted to an apparently normal phenotype”. Besides, in data set [4], the “suppression of growth of transformed NIH 3T3 cells” value is recorded as “suppress the growth”. Also, the “tumorigenicity of revertant clones” value in data set [5] is “complete loss of tumorigenicity”. In addition, the “Selective toxicity” value in data set [1] is recorded as 1.4.
